Patent US11034662B2, “Substituted phenothiazines as mitochondrial agents” (ARIZONA BOARD OF REGENTS ON BEHALF OF ARIZONA STATE …, priority 2015, dated 2021)

How the values were obtained:
frataxin = test: Frataxin protein expression (Western blot) in FRDA lymphocytes; assay type: cell-based, human; conditions: for level of frataxin (western blot): FRDA lymphocytes, FIG. 9
Method: Human mitochondrial disease cell line, Friedreich's ataxia lymphocytes (GM15850) was obtained from Coriell Cell Repositories (Camden, N.J.). Lymphocytes were cultured in RPMI-1640 medium (Gibco, Life Technologies, Grand Island, N.Y.) with 15% fetal calf serum, 2 mM glutamine (HyClone, South Logan, Utah) and 1% penicillin-streptomycin antibiotic supplement (Cellgro, Manassas, Va.). Cells were passaged every other day to maintain them in log phase growth and kept at a nominal concentration of 5-10×10^5 cell/mL. A CoQ10 deficient lymphocyte cell line (GM17932) was obtained from Coriell Cell Repositories. A nutrient sensitized screening strategy to identify methylene blue analogues that function within the mitochondrial respiratory chain was used by growing the CoQ10-deficient or FRDA lymphocytes in galactose containing media to force energy production predominantly through oxidative phosphorylation rather than glycolysis.^1-4 The lymphocytes were cultured in RPMI 1640 glucose free medium (Gibco, Grand Island, N.Y.) supplemented with 25 mM galactose, 2 mM glutamine and 1% penicillin-streptomycin, and 10% dialyzed fetal bovine serum (FBS) (<0.5 μg/mL) (Gemini Bio-Product, West Sacramento, Calif.).
Immortalized normal and FRDA lymphocyte cell lines were seeded at 500,000 cells per/mL (5 mL) in T-25 flask. Cultures were treated with the test compounds and incubated for 24 h. Cells were harvested by centrifugation, washed with saline buffer and then were lysed using 200 μL of lysis buffer (1% triton X-100, 0.1% SDS, Tris-HCl (50 Mm) pH 7.4, 150 mM NaCl, 0.5% sodium deoxycholate, 0.1 mM EDTA) with protease inhibitors (protease cocktail inhibitors (Roche Applied Science) and 1 mM phenylmethylsulfonyl fluoride (Sigma), and incubated on ice for 30 min with periodical mixing. These samples were cleared of insoluble material by centrifugation at 20,000×g for 10 min at 4° C. Total protein concentration was measured by the BCA kit (Thermo Fisher Scientific). NuPAGE LDS Sample Buffer (4×) and NuPAGE Reducing Agent (10×) was added the lysate and they were denatured at 95° C. for 5 min, then equal amounts of lysates ([…]) were used for immunoblotting. Samples were resolved on a 4%-12% SDS-polyacrylamide Bis-Tris gels (Invitrogen) according to the manufacturer's recommendations and then proteins were transferred to nitrocellulose membranes. After blocking with Superblock-TBS (Thermo Fisher Scientific) for 1 hour to inhibit non-specific binding the blot was incubated with anti-frataxin monoclonal antibody (5 μg/mL) (18A5DB1) (Novex®) (Life technologies) overnight at 4° C. to detect endogenous frataxin in FRDA and normal lymphocytes. Following three 5-min washes with TBST, the blots were incubated with horseradish peroxidase-linked secondary […] antibody IgGs (1:10,000, Sigma, in Superblock-TBS) at room temperature for 1 hr. The blots were washed three times for 5 min with TBST, rinsed with deionized H2O, and developed with enhanced chemiluminescence (ECL) (BioRad Chemi-Doc) using West Pico Chemiluminescent Substrate (Pierce Biotechnology).

[1] = test system: bovine heart mitochondrial NADH oxidase activity (complexes I, III and IV); test: NADH oxidase activity in bovine heart mitochondria; assay type: biochemical; conditions: complex I completely blocked by rotenone; FIG. 6
Method: The effect of the methylene blue analogues on the activities of complexes I, III and IV within the respiratory chain was evaluated using bovine heart mitochondria during the oxidation of their respective substrate (NADH) as described previously. Briefly, a small scale preparation of bovine heart mitochondria was prepared as described before (Smith, A. L (1967), Methods Enzymol. 10, 81). Bovine heart submitochondrial particles (SMPs) were prepared as described by Matsuno-Yagi and stored in a buffer containing 0.25 M sucrose and 10 mM Tris-HCl, pH 7.4, at −80° C. (Matsuno-Yagi, A.; Hatefi, Y. J. (1985) J. Biol. Chem. 260, 11424). SMPs were diluted to 0.5 mg/mL. Mitochondrial complexes I, III, and IV activity were assayed at 30 C and monitored spectrophotometrically using a Beckman Coulter DU-530 (340 nm, ε=6.22 mM^−1 cm^−1). NADH oxidase activity was determined in 50 mM Hepes buffer containing 5 mM MgCl2, pH 7.5, in a total volume of 2.5 mL. The final mitochondrial protein concentration was 30 μg/mL. The initial rates of NADH oxidation were calculated from the linear portion of the traces.

CN(C)c1ccc2nc3ccc(=[N+](C)C)cc-3sc2c1 [Methylene blue, 3,7-bis(dimethylamino)phenazathionium chloride, reference compound]
level of frataxin (western blot) (frataxin; higher concentration): did not
level of frataxin (western blot) (frataxin; lower concentration): slightly increased

CCCCCCCCCCCCCCCCCc1cc2nc3ccc(N(C)C)cc3sc-2cc1=[N+](C)C [compound 5, N-(7-(dimethylamino)-2-heptadecyl-3H-phenothiazin-3-ylidene)-N-methylmethan-aminium iodide]
effect on NADH oxidase activity: redirection of electron flow in the respiratory chain [1]: able redirect electron flow in the respiratory chain

CCCCCCCCCCCCCCCN(CCCC)c1ccc2nc3ccc(=O)cc-3sc2c1 [compound 33, 7-(butyl(pentadecyl)amino)-3H-phenothiazin-3-one]
level of frataxin (western blot) (frataxin; higher concentration): significantly increased
level of frataxin (western blot) (frataxin; lower concentration): significantly increased
frataxin levels (frataxin; general statement, concentration not given): significantly increased
